Measured values taken from patent publication US9732367B2, “Cell lines” (MEDIMMUNE LIMITED, priority 2012, dated 2017).
Values joined by “and” are separate entries in the source; they are usually repeats but may differ in a detail not shown here. Equal entries are not always repeated.

B1: PEG-FGF21 (conjugate, UniProt Q9NSA1 29-209, looked up)
Fibroblast growth factor 21: HPIPDSSPLLQFGGQVRQRYLYTDDAQQTEAHLEIREDGTVGGAADQSPESLLQLKALKPGVIQILGVKTSRFLCQRPDGALYGSLHFDPEACSFRELLLEDGYNVYQSEAHGLPLHLPGNKSPHRDPAPRGPARFLPLPGLPPALPEPPGILAPQPPDVGSSDPLSMVGPSQGRSPSYAS
modifications: PEGylated

How the values were obtained:
pylRS = target: T1, pylRS (Methanosarcina mazei, UniProt Q8PWY1); assay: In vitro GFPY40 functional assay: dnnAA competition with lys azide in HEK293 cells stably expressing pylRS; format: cell-based; settings: for reduction of GFP expression relative to samples lacking dnnAA (geometric mean fluorescence intensity): lys azide with 0.5 mM, 1 mM and 2 mM dnnAA
T1 construct: expressed in transfected cells
T1 sequence (Q8PWY1 whole entry): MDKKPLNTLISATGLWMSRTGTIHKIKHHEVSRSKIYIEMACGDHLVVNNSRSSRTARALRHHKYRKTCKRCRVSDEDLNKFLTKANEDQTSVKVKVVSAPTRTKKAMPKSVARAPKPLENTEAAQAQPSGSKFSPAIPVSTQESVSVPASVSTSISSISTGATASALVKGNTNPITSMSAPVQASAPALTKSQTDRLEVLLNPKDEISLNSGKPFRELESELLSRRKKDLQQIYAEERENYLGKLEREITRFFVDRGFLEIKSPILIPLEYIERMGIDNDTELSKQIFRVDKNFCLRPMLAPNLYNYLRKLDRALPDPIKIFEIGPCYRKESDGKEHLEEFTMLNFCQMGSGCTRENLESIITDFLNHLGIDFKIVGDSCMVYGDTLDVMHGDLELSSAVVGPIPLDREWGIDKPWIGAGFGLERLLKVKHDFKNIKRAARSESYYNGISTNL
Text: Effective dnnAAs were identified by their ability to compete with a high affinity substrate for pylRS (lys-azide) in an in vitro assay, for their ability to reduce background amber suppression levels observed with a reporter protein, and for their ability to improve the viability and function of cells previously selected for high pylRS/tRNA activity.
To identify analogues that could effectively compete for pylRS binding with lys-azide, dnnAAs were first tested for function in an in vitro functional assay based on the ability of cells expressing WT pylRS and tRNApyl to introduce a nnAA at a target site in the reporter protein GFPY40. This reporter contains an amber codon in its open reading frame that, in the absence of amber suppression, generates a truncated protein that is not fluorescent. In the event of amber suppression, a full length GFP protein is generated that is detectable by fluorescence detection methods. In this assay, HEK293 cells stably expressing pylRS, were transiently transfected with a tRNA expression construct and the GFPY40 reporter cassette. Cells were then incubated with 0.5 mM lys azide in the presence or absence of different concentrations of dnnAA ranging from 0.5 mM to 2 mM. GFP fluorescence levels were then quantified by flow cytometry. For this assay the proportion of fluorescent cells in each condition was determined and plotted. As the dnnAAs are expected to compete with the nnAA (lys-azide) for pylRS/tRNA binding, an effective dnnAA should reduce or prevent the expression of full length GFP (as described above dnnAAs can be delivered by the tRNA to the amber site, but cannot propagate protein synthesis).
A similar in vitro assay was used to gauge the effectiveness of the dnnAAs of Formula VIIB listed in Table 1 where a description of the amino acids tested and a summary of the results are shown For this assay the geometric mean fluorescence intensity of each sample was determined by flow cytometry and plotted. For each dnnAA tested control cells transfected with wild type GFP were measured as a positive control. In addition cells transfected with the reporter GFPY40 and exposed to 0.5 mM lys azide or 2 mM lys azide were used to determine maximal GFP expression levels in the absence of an inhibitor. In each case robust GFP expression levels were observed. To test whether any of the dnnAA could reduce the efficacy of GFP expression, cells were incubated in the presence of 0.5 mM, 1 mM and 2 mM […]. […] Thus, dnnAAs of the present invention can compete with the lys-azide nnAA for binding to the pylRS and interfere with the physiological mechanism of nnAA introduction. Cells transfected with the pylRS/tRNA pair and the GFPY40 reporter construct but not exposed to either lys-azide or a dnnAA were used to determine levels of background amber suppression and used as a negative control. In each case low GFP expression levels were observed.

[1] = tested on: background amber suppression; assay: Background amber suppression (GFPY40 reporter, pylRS/tRNApyl, dnnAA without nnAA); format: cell-based; settings: for reduction in background amber suppression levels: dnnAA at 0.5 mM, 1 mM and 2 mM; for % Reduction at 2 mM Decoy: reduction in GFP expression relative to control not exposed to dnnAA, 3 days
Method: The competitive assay for dnnAA inhibition in the presence of a high affinity substrate identified dnnAAs that compete for binding with to the pylRS and thus are specific inhibitors of the pylRS/tRNA. However, the decoy nnAA is intended to reduce the levels of background amber suppression in the absence of nnAA. To determine if background amber suppression levels could be reduced, we incubated cells containing the GFPY40 reporter construct and the pylRS/tRNApyl pair in medium containing one of the dnnAAs. To do this, HEK293 cells stably expressing pylRS were transiently transfected with a tRNA expression construct and the GFPY40 reporter cassette. After 3 days of incubation, cells were assayed for expression of GFP by flow cytometry and geometric mean fluorescence intensity of the samples determined. We have previously observed that cells containing the full complement of the pylRS/tRNA amber suppression system show detectable expression of the GFP reporter construct that is above what is observed in cells lacking the amber suppression system. […] To identify dnnAAs capable of reducing background amber suppression levels the transfected cells were incubated with each of the dnnAAs at 0.5 mM, 1 mM and 2 mM and GFP levels measured by flow cytometry.
The decrease in background amber suppression dependent GFP expression was dose dependent and improved as the dnnAA concentration increased. […] This feature is an attractive characteristic for platform development as it enables the repression of background amber suppression but the system can be activated upon addition of a strong pylRS substrate such as lys-azide. […] Their efficacy was quantified by the reduction in GFP expression relative to a control sample (not exposed to dnnAA) and the data are summarized in Table 1.

[2] = tested on: CHO cells stably expressing pylRS and tRNApyl and an IgG directed against her2/neu containing an amber codon; assay: Growth and viability of pylRS/tRNApyl cell line treated with lys azide and dnnAA; format: cell-based; settings: 2 mM dnnAA with 0.5 mM lys-azide; for cell viability / cell density: seven days
Text: To examine whether the dnnAAs of the invention could function to improve the viability of cells containing pylRS and tRNApyl we monitored the growth and viability of a cell line, stably expressing pylRS and tRNApyl. For this assay CHO cells stably expressing pylRS and tRNApyl and an IgG directed against her2/neu containing an amber codon in the heavy chain, shown to effectively incorporate nnAA into the expressed IgG thus producing an antibody containing a nnAA, were used for this experiment. Despite a high expression level of pylRS/tRNApyl pair, this cell line has very robust cell growth characteristics when grown in medium lacking nnAA. The presence of a highly expressed target containing an amber codon likely has a protective effect on the cells by supplying them with high levels of amber codons that absorb the amber suppression activity and protects the cells from the effects of background amber suppression at essential genes. However, upon addition of the nnAA (lys-azide) to the growth medium, and activation of the amber suppression machinery, a decrease in cell growth rate is observed. […] To determine whether a dnnAA can rescue this effect, cells cultured in serum free medium were grown to a cell density of 0.5×10^6 cells/mL and subsequently treated with 0.5 mM lys azide alone or in combination with 2 Mm dnnAA. Cell viability and cell numbers were monitored daily over seven days. Cells treated with lys azide alone reached a cell density just below 1×10^6 cells/mL on day 3 after nnAA addition and remained at this density for the remainder of the assay (seven days) (FIG. 15A) The lack of growth was not likely due to loss of viability as the culture retained high viability throughout the experiment (˜70% viable cells) (FIG. 15B) Cultures treated with 2 mM Compound of formula VIIB.4, or 2 mM Formula VIIB.1 in combination with 0.5 mM lys-azide supported continued growth of the culture that reached over 1.5×10^6 cells/mL and retained a cell viability of 90%.

platform cell line [3] = assay: GFPY40 reporter activity of platform cells grown with or without dnnAA (flow cytometry); format: cell-based
Method: (§1) To do this a platform cell line, selected for high activity of the amber suppression machinery was grown in the presence or absence of dnnAA for several passages and subsequently seeded into 96-well plates at ten cells per well and grown in the presence or absence of dnnAA (Formula VIIB.2). Each plate was incubated for several days and cells harvested, pooled and counted. […] This two fold increase in cell numbers may be due to the protective effects of the dnnAA. To examine the activity of the cells grown under these conditions, 0.5×10^6 cells pooled from each plate were seeded into a 6-well plate and transfected with a GFPY40 reporter construct in the absence of dnnAA and with lys-azide. After 24 hours the fluorescence intensity of the cells in each sample was analysed by flow cytometry. The data were gated to include single cells and plotted to display the intensity of each event (scatter plot, FIG. 16). The number of events falling within the top 10% of the GFP intensity spectrum were determined for each sample (Table 2). […] Cells from both groups were also transfected with a construct encoding wild type GFP. The same analyses were performed on this group.

platform cell line [4] = assay: Platform cell line grown with or without dnnAA: cell numbers; format: cell-based
Method: as §1

db/db mice = assay: Fed glucose blood levels in db/db mice; format: in vivo, mouse; settings: 0.25 mg/Kg daily subcutaneously, day 3
Method: To assess the potency of the PEGylated FGF21 constructs obese, db/db mice were treated daily with 0.25 mg/Kg FGF21 or 20K PEG-FGF21 and glucose levels measured in fed mice after three treatments using a handheld glucose monitor, (FIG. 7B).
The homozygous db/db mouse (B6.BKS(D)-Leprdb/j, Jackson labs) is a well characterized animal model for diabetes and becomes obese after 3-4 weeks of age. The animals also display elevated plasma insulin, blood sugar, and delayed wound healing. In this study, 7-8 week old, male db/db mice were fed Lab Diet 5053 Rodent Diet 20 ad libitum. Mice were acclimatized for seven days and subsequently administered PEGylated FGF21, unmodified FGF21 and vehicle (PBS) subcutaneously daily for […].
Each mouse was administered 0.25 mg/Kg of PEG-FGF21 or unmodified FGF21 daily for three days. Fed glucose blood levels were determined by tail clip bleeding one hour after compound administration on day 3, and glucose levels measured by a handheld glucose meter (Bayer).

[5] = Tracer (wild type GFP) transfected, sample 6

Molecule	reduction of GFP expression relative to samples lacking dnnAA (geometric mean fluorescence intensity) (pylRS)	reduction in background amber suppression levels [1]	% Reduction at 2 mM Decoy [1] [%]	prevention of cytostatic effects of amber suppression activation [2]	cell viability [2]	also measured
C=CCOC(=O)NCCCCCC(=O)O [Formula VIIB.1, 6-{[(prop-2-en-1-yloxy)carbonyl]amino}hexanoic acid]	greatest reduction of GFP expression	reduction in the background amber suppression levels	62.5	prevent the cytostatic effects	90%	–
[N-]=[N+]=NCCOC(=O)NCCCCCC(=O)O [Formula VIIB.6, 6-{[(2-azidoethoxy)carbonyl]amino}hexanoic acid]	greatest reduction of GFP expression	reduction in the background amber suppression levels	32	–	–	% Reduction at 2 mM Decoy ([1]; listed as VIIB.6): 32.7%
C=CCOC(=O)NCCCCC(=O)O [Formula VIIB.2, 5-{[(prop-2-en-1-yloxy)carbonyl]amino}pentanoic acid]	relative reduction in GFP expression was much lower	reduction in the background amber suppression levels	57.7	prevent the cytostatic effects	over 90%	Top 300 (GM) (platform cell line [3]; GFPY40 reporter with lys-azide, 24 hours, cells previously grown with decoy): 1142 and 1149 and 1135; # events in top gate (platform cell line [3]; GFPY40 reporter, top 10% of GFP intensity, cells previously grown with decoy): 175 and 179 and 171; # events in top gate (platform cell line [3]; [5]): 59; Top 300 (GM) (platform cell line [3]; [5]): 529; increase in cell numbers vs cultures without dnnAA (platform cell line [4]): two fold; cell numbers (platform cell line [4]; 96-well plates, ten cells per well, grown in dnnAA): 3.0 ×10^6 cells/mL and 3.7 ×10^6 cells/mL; cell density [2]: over 3 ×10^6 cells/mL
C#CCOC(=O)NCCCCCC(=O)O [Formula VIIB.5, 6-{[(prop-2-yn-1-yloxy)carbonyl]amino}hexanoic acid]	relative reduction in GFP expression was much lower	reduction in the background amber suppression levels	35	–	–	% Reduction at 2 mM Decoy ([1]; listed as VIIB.5): 35.0%
CC(C)(C)OC(=O)NCCCCCC(=O)O [Formula VIIB.4, 6-{[(tert-butoxy)carbonyl]amino}hexanoic acid]	–	–	46.3	prevent the cytostatic effects	90%	number of fluorescent cells (GFPY40) (pylRS; 0.5 mM lys azide with dnnAA 0.5 mM to 2 mM): concomitant reduction in the number of fluorescent cells; GFP expression with dnnAA alone (amber codon readthrough) (pylRS; dnnAA alone, no lys azide): did not induce GFP expression; effect on GFPwt expression (non-specific effects) (pylRS; reporter lacking an amber codon): no effect on protein expression
O=C(O)CCCCCNC(=O)OCCCl [Formula VIIB.3, 6-{[(2-chloroethoxy)carbonyl]amino}hexanoic acid]	greatest reduction of GFP expression	reduction in the background amber suppression levels	49.7	–	30-40%	cell density [2]: < 0.5 ×10^6 cells/mL
B1	–	–	–	–	–	glucose level maintenance vs placebo (db/db mice): improved glucose level maintenance as compared to placebo controls; potency on fed glucose blood levels (db/db mice): same potency of wild type FGF21
